Assay results reported in patent US4323602A, “Water repellent and preservative for wood products” (priority 1980, dated 1982).

Tested on: Lenzites trabea (Madison strain 617)
Experiment: NWMA Soil-Block Test (fungicide effectiveness, wood decay)
Conditions: 5.4 times the threshold concentration (NWMA)
Method: The product of Table 2, diluted with four parts water, was tested as a fungicide using a standard National Woodwork Manufacturers Association (NWMA) Soil-Block Test to determine and compare effectiveness with a Standard Solvent Based 5% Penta treating solution. This test method is used to determine the minimum amount of preservative that is effective in preventing decay of selected species of wood by selected fungi under optimum laboratory conditions.
The test method may be briefly summarized as follows: Conditioned blocks of wood are impregnated with solutions of a preservative in water or organic solvent to form one or more series of gradient retentions of the preservative in the blocks. After periods of weathering, the impregnated blocks are exposed to the wood-destroying fungus, Lenzites trabea (Madison strain 617). The minimum amount of preservative which protects the impregnated blocks against decay by the fungus is defined as the threshold retention for that organism. Failure to protect is evidenced by loss of wood from the treated wood blocks, as indicated by a loss in weight.
The threshold retention expressed in pounds of treating solution per cubic foot of wood represents the minimum amount of preservative necessary to protect wood from decay. […]

With `CCCCNC(=O)OCC#CI` [Example 3-Iodo, 3-iodo-2-propynyl butyl carbamate] as the compound, how does the “Use Concentration” value read?
Its value is 0.27%.
